Measurements: the Bradley open melting point set (2014)
“And” between values parts separate entries of the source, which are not always exact repeats. Equal entries are not always repeated.

Work on CC(=O)[C@H]1C[C@@H](CC(=O)O)C1(C)C [[(1S,3S)-3-Acetyl-2,2-dimethylcyclobutyl]acetic acid] yielded a melting point of 67.8 °C. In the case of ClCc1ccccc1CCl [a,a'-dichloro-o-xylene], the melting point is reported as 56 °C. With ClC1(Cl)[C@]2(Cl)C(/Cl)=C(/Cl)[C@@]1(Cl)[C@@H]3[C@@H](Cl)[C@@H](Cl)C[C@H]23 [a-Chlordane, cis-Chlordane] the melting point was 106 °C. With Cl[C@H]1[C@H](Cl)[C@@H](Cl)[C@H](Cl)[C@H](Cl)[C@H]1Cl [a-hexachlorocyclohexane] the melting point was 159 °C. With CC(C)C1=CC2=CC[C@@H]3[C@](C)(CCC[C@@]3(C)C(=O)O)[C@H]2CC1 [abietic acid] the melting point was 161 °C. For CCCC(=O)Nc1ccc(OCC(O)CNC(C)C)c(C(C)=O)c1 (centres undefined) [acebutolol] [listing 1 of 2 here], the melting point was 123 °C. Compound CCCC(=O)Nc1ccc(OCC(O)CNC(C)C)c(C(C)=O)c1 (centres undefined) [acebutolol] [listing 2 of 2 here] has a melting point of 119 °C. In the case of c1cc2c3c(cccc3c1)CC2 [acenaphthene] [listing 1 of 2 here], the melting point is reported as 95 °C. In the case of c1cc2c3c(cccc3c1)CC2 [acenaphthene] [listing 2 of 2 here], the melting point is reported as 94 °C (2×) and 95 °C. Work on CC=O [acetaldehyde] yielded a melting point of -125 °C. Work on CC(=O)Nc1ccc(O)cc1 [acetaminophen] [listing 1 of 2 here] yielded a melting point of 169 °C. With CC(=O)Nc1ccc(O)cc1 [acetaminophen] [listing 2 of 2 here] the melting point was 170 °C. In the case of CC(=O)Nc1ccccc1 [acetanilide] [listing 1 of 2 here], the melting point is reported as 115 °C. For CC(=O)Nc1ccccc1 [acetanilide] [listing 2 of 2 here], the melting point was 114 °C. CC(C)=O [acetone] showed a melting point of -94 °C. CC(=O)CCC(C)=O [acetonylacetone] gave a melting point of -6 °C. CC(=O)SCC(Cc1ccccc1)C(=O)NCC(=O)OCc1ccccc1 (centres undefined) [acetorphan] gave a melting point of 89 °C. CC(=O)Br [acetyl bromide] showed a melting point of -96 °C. Compound CCC(C(=O)NC(=O)NC(C)=O)c1ccccc1 (centres undefined) [acetylpheneturide] has a melting point of 100 °C. With CC(=O)Oc1ccccc1C(=O)O [acetylsalicylic acid] the melting point was 135 °C. Work on CC(=O)Oc1ccccc1C(=O)O [acetylsalicylicacid] yielded a melting point of 142 °C. In the case of CC1(c2ccccc2)OC(C(=O)O)=CC1=O (centres undefined) [acifran], the melting point is reported as 176 °C. With COc1cc(C)c(C=CC(C)=CC=CC(C)=CC(=O)O)c(C)c1C [acitretin] the melting point was 228 °C. With C=CC=O [acrolein] the melting point was -87 °C. In the case of C1C2CC3CC1CC(C2)C3 [adamantane], the melting point is reported as 268 °C. With Nc1ncnc2c1ncn2[C@@H]1O[C@H](CO)[C@@H](O)[C@H]1O [adenosine] the melting point was 235 °C. For O=C(O)CCCCC(=O)O [adipic_acid], the melting point was 153 °C. N#CCCCCC#N [adiponitrile] showed a melting point of 2 °C. Compound OC[C@@H](O)[C@@H](O)[C@@H](O)CO [adonitol] has a melting point of 103 °C. Work on CCCSc1ccc2[nH]c(NC(=O)OC)nc2c1 [albendazole] yielded a melting point of 208 °C. For C=CCN [allylamine], the melting point was -88 °C. For C=CCc1ccccc1 [allylbenzene], the melting point was -50 °C. Work on N#CC(c1ccccc1)N1CCOCC1 (stereo not drawn) [alpha-(4-morpholinyl)phenylacetonitrile] yielded a melting point of 69 °C. For C=C(C)c1ccccc1 [alpha-methylstyrene], the melting point was -23 °C. CC1=CCC(C(C)(C)O)CC1 (stereo not drawn) [alpha-terpineol] showed a melting point of 32 °C. With NC(c1ccccc1)c1ccccc1 [aminodiphenylmethane] the melting point was 12 °C. Compound Cc1c(N(C)C)c(=O)n(-c2ccccc2)n1C [aminopyrine] has a melting point of 108 °C. NC1=NCC(c2ccccc2)O1 (centres undefined) [aminorex] showed a melting point of 136 °C. Compound C=C(C)Cn1c(N)cc(=O)n(C)c1=O [amisometradine] has a melting point of 175 °C. CN(C)CCC=C1c2ccccc2CCc2ccccc21 [amitriptyline] gave a melting point of 196 °C. CCC1(CCC(C)C)C(=O)NC(=O)NC1=O [amobarbital] showed a melting point of 156 °C. CC(Cc1ccccc1)NC(C#N)c1ccccc1 (centres undefined) [amphetaminil] showed a melting point of 85 °C. In the case of CCCCCOC(C)=O [amyl_acetate], the melting point is reported as -100 °C. For CC12CCC=C1C1CCC3CC(=O)CCC3(C)C1CC2 (centres undefined) [androst-14-en-3-one], the melting point was 116 °C.
